Results published in patent US11039618B2, “Metam salts and polysulfide soil treatment” (Tessenderlo Kerley, Inc, priority 2016, dated 2021).

Experiments:
Verticillium = assay: Jar test 2016: Verticillium microsclerotia colonies in treated soil, dry soil plating on NP-10; assay type: cell-based, Verticillium dahliae; settings: Metam 40 gal/acre (190 kg active/ha); 2016
Experimental: These investigations were performed under laboratory conditions in an initial jar test. We also investigated the pathogen control efficacy of LSS treatments, at 30 gal/acre (90 pounds/acre or 101 Kg/ha of calcium polysulfide) and at 90 gal/acre (276 pounds/acre or 310 Kg/ha of calcium polysulfide), and combined Metam/LSS treatments using Sectagon® brand metam at 20 gal/acre Metam (84 pounds/acre or 94 Kg/ha of metam sodium) with 40 gal/acre LSS (122 pounds/acre or 138 Kg/ha of calcium polysulfide); and at 30 gal/acre Metam (126 pounds/acre or […] of metam sodium) with 20 gal/acre LSS (60 pounds/acre or 67 kg/ha of calcium polysulfide). […] This may be due to lower water saturation in the 2016 tests compared to the saturation in 2015 tests, which was near 100%.
Each treatment listed in Table 1 was replicated 4 times. Verticillium levels in soil were assessed by dry incubation on semi selective media (NP-10) method. Soil collected from a Romaine lettuce field in Salinas, Calif. was used for the investigation. […]
Experimental Setup: Seven treatments were installed in 4 replicates each. […] The equivalent of gal/acre was calculated on the assumption that on acre of soil has an average weight of 3,625,895 lbs. […] Afterwards, soil was split between the two laboratories and were assessed according to the method described.
Verticillium levels in soil were assessed by dry incubation on semi selective media (NP-10). […]
The quantity of Verticillium in soil was assessed by dry soil plating on NP-10 semi-selective medium. […] After that, remaining soil was gently washed off the plates and the number of Verticillium microsclerotia colonies were counted on each plate under a microscope. The number of microsclerotia colonies is used as a standard method to quantify Verticillium in soil and was extrapolated for 1 g soil.
Results were analyzed in a one-way ANOVA (P=0.05) and a Fisher LSD Post-Hoc test. […]
Verticillium assessments were performed parallel in two separate laboratories. […] The quantity of Verticillium in soil was assessed by dry soil plating on NP-10 semi-selective medium. […]

Verticillium dahliae = assay: Plate tests: Verticillium counts in treated greenhouse soil; assay type: cell-based; settings: 20 gal./acre metam
Experimental: Seven days after treatment, one soil sample per replicate was taken. V. dahliae control efficacy was assessed according to the methods below. Soil mixture was dried two weeks under greenhouse conditions. The quantity of V. dahliae in the soil was/will be assessed by dry soil plating on semi-selective medium. Dry soil samples were crushed and sieved through a #20 mesh. A small portion of each sample was incubated on six NP-10 semi-selective plates with a 6-stage Impactor (Anderson Samplers Inc., Atlanta, Ga.), using stages 2 and 3. Semi-selective NP-10 medium was prepared according to Kabir et al. (2004) and incubated at 24° C. in the dark for four weeks after spreading 0.5 g of soil. After incubation, the remaining soil was be gently washed off the plates and the number of V. dahliae microsclerotia colonies were counted on each plate under a microscope. The number of microsclerotia colonies equals the quantity of V. dahliae in soil and were extrapolated to 1 g of soil.
Plate tests were performed on selected samples to determine the Verticillium counts in treated soil through Aug. 17, 2017. Plate tests were performed as described previously. The untreated control comparative sample 1 averaged 32.5 ms per gram of soil. For reasons not known, the water check comparative sample 2, with no active ingredients added, contained only 11.5 ms per gram of soil. […]

soilborne fungi = assay: Visual observation of general fungal growth on the plates (jar test); assay type: cell-based; settings: observed visually on the plates
From the text: The general impact of LSS on fungal growth was also observed visually on the plates.

soilborne disease = settings: about 40 gallons of metam sodium per acre (190 Kg/ha); commercial conditions; cited from earlier work

CNC(=S)S [Metam, sodium methyldithiocarbamate]
Microsclerotia (Verticillium) per gram of soil, ms/g, 2016 (Verticillium): 6.5 ms/g | Verticillium dahliae population (Verticillium dahliae): 3 ms per gram of soil | reduction of fungal growth of soilborne fungi (soilborne fungi): ~100% | reduction of certain soilborne disease (soilborne disease): ~70%
